The term IC50 denotes the concentration needed to halve the response being measured.

The text below walks through data of patent US8518958B2, “Pyrido [2,3-D] pyrimidines and their use as kinase inhibitors” (Forma Therapeutics, Inc., priority 2006, dated 2013).

Assay [1] has as its system HT-29 tumor cells. In words: Anti-proliferative activity, SRB assay. The assay is classed as cell-based, human. The conditions noted are these: Homo sapiens, HT-29, 72 h, 72 hours exposure, read-out: CELLULAR IC50 HT-29. As to the method:
We observed the surprising finding that compounds of the invention were useful in inhibiting proliferation of HT-29 tumor cells (see Table 3).
3,000-15,000 cells/well were exposed to the test compounds at various concentrations appropriate to determine an IC50, for 72 hours, and cell proliferation was measured using the SRB assay according to Shekan et al (J Natl Cancer Inst (1990) 82, 1107-112) in order to estimate the IC50 values shown in Table 3. Briefly, cells were plated in 96 well dishes 24 hours prior to compound addition. The assay was terminated with the addition of cold TCA to a final concentration of 10% and the plates were incubated for one hour at 4° C. The plates were then washed 5 times with water and 100 μl of a Sulforhodamine B solution (4%) was added to each well. The plate was then incubated for 10 minutes at room temperature before removal of unbound dye by washing with 1% acetic acid. The bound dye was solubilized with 10 mM Trizma base and the absorbance read at OD570. Inhibitory activity of the compounds was calculated as % inhibition of cell proliferation compared to cells treated with the solvent (DMSO).
For orientation: Sulforhodamine B stains cellular protein and so reports cell mass.

The target of assay [2] is B-Raf delta1-415 (Homo sapiens, UniProt P15056). In words: B-Raf kinase inhibition (MAPH filter plate, 33P-ATP, MEK1 substrate). The conditions noted are these: read-out: Biochemical IC50 B-Raf. The text has this:
We characterized the in vitro inhibitory activity against protein kinases of compounds of the present invention by determining their IC50 values (see Table 2).
Kinase: B-Raf delta1-415 (e.g., Upstate Cat. No. 14-530)
Reaction Temperature: room temperature
Assay Plate: 96 well U bottom plate (Greiner, 650161)
MultiScreen-PH Plate: 96 well MAPH Filter Plates (Millipore, MAPHNOB50)
Filter Washing Solution: 0.75% H3PO4
Szintilation Liquid: Supermix Liquid Szintillator (PerkinElmer, 1200-439)
Negative Control (C−): 100 mM EDTA, no Inhibitor
Positive Control (C+): no Inhibitor
Reaction Buffer: 20 mM Mops, pH 7.0 • 10 mM MgCl2 • 0.4 mM MnCl2 • 100 mM NaCl • 1 mM DTT • 0.01% NP40
Final Assay Concentrations:
Kinase: Kinase conc. yielding 50% substrate turnover as determined in titration experiment.
Adenosine 5′-[γ-^33P]triphosphate: 12.5 μCi/ml (Amersham Biosciences, BF1000)
Pipetting Sequence: • 1) Add 10 μl 4-fold concentrated substrate in 3-fold concentrated reaction buffer to each well of assay plate • 2) Add 10 μl 4-fold concentrated inhibitor in 4% DMSO in H2O to each well except to C− and C+ wells (starting point: final inhibitor concentration 10 μM; IC50 determination based on dilution series) • 3) Add 10 μl 4% DMSO in H2O to C− and C+ wells • 4) Add 10 μl 500 mM EDTA in H2O to C− wells • 5) Add 10 μl 50 μCi/ml adenosine 5′-[γ-^33P]triphosphate in H2O+4-fold cold ATP to each well • 6) Add 10 μl 4-fold concentrated kinase in reaction buffer to each well • 7) Incubate 1 hr at room temperature • 8) Add 10 μl 50 mM EDTA in H2O to each well except to C− wells • 9) Prepare MAPH plates by adding 200 μl 0.75% H3PO4 to each well • 10) Exhaust 0.75% H3PO4 using Millipore vacuum station • 11) Add 60 μl 0.75% H3PO4 to each well of MAPH filter plate • 12) Transfer 30 μl sample per well from assay plate to corresponding well of MAPH filter plate • 13) Incubate 30 min at room temperature • 14) Wash each well of MAPH filter plates 3× with 200 μl 0.75% H3PO4 using Millipore vacuum station • 15) Add 20 μl scintillation liquid to each well of MAPH filter plate • 16) Seal MAPH filter plate • 17) Store MAPH filter plate 30 min in darkness • 18) Quantify radioactivity using scintillation counter (MicroBeta, Perkin-Elmer)

Chain of B-Raf delta1-415 (P15056 416-766): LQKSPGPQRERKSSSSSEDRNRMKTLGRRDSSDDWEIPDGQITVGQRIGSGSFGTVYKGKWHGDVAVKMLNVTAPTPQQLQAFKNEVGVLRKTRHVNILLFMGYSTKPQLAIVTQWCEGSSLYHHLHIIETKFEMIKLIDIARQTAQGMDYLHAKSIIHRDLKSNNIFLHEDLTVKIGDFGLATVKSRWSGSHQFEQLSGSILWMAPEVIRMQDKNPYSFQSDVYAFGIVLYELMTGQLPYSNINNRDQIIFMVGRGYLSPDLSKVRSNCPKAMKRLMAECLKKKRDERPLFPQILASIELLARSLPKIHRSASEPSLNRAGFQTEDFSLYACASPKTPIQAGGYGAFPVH

`COn1c(=O)c(-c2c(Cl)cccc2Cl)cc2cnc(Nc3ccc(CN4CC[C@H](O)C4)cc3)nc21` [Compound 180, 6-(2,6-Dichlorophenyl)-2-(4-(3-(S)-hydroxypyrrolidinomethyl)phenyl)-amino-8-methoxy-pyrido[2,3-d]pyrimidin-7-one]: the IC50 in assay [1] was less than 1000 nM; in assay [2], less than 100 nM.

For the molecule `COC(=O)c1cc(Nc2ncc3cc(-c4c(C)cccc4C)c(=O)n(OC)c3n2)cn1C` [Compound 79], the IC50 was less than 1000 nM in assay [1] and less than 500 nM in assay [2].

As for `COn1c(=O)c(-c2c(Cl)cccc2Cl)cc2cnc(Nc3cc(C(=O)N(C)CCOC(=O)c4cccnc4)n(C)c3)nc21` [Compound 159], the IC50 was less than 1000 nM in assay [1] and less than 500 nM in assay [2].

Turning to `COn1c(=O)c(-c2c(Cl)cccc2Cl)cc2cnc(NC3CC3)nc21` [Compound 113, 2-Cyclopropylamino-6-(2,6-dichlorophenyl)-8-methoxy-pyrido[2,3-d]pyrimidin-7-one], the IC50 is less than 10000 nM in assay [1] and less than 500 nM in assay [2].

On to `CCNS(=O)(=O)c1cccc(Nc2ncc3cc(-c4c(Cl)cccc4Cl)c(=O)n(OC)c3n2)c1` [Compound 122, 6-(2,6-Dichlorophenyl)-2-(3-ethylaminosulfonylphenyl)-amino-8-methoxy-pyrido[2,3-d]pyrimidin-7-one], for which the IC50 was less than 1000 nM in assay [1] and less than 500 nM in assay [2].

Regarding `CCOn1c(=O)c(-c2c(Cl)cccc2Cl)cc2cnc(Nc3cc(C(=O)N(C)CCOC)n(C)c3)nc21` [Compound 171, 6-(2,6-Dichlorophenyl)-8-ethoxy-2-(5-N-(2-methoxyethyl)-N-methyl-aminocarbonyl-1-methyl-pyrrol-3-yl)-amino-pyrido[2,3-d]pyrimidin-7-one], the IC50 was less than 1000 nM in assay [1] and less than 500 nM in assay [2].

In the case of `COCCOn1c(=O)c(-c2c(Cl)cccc2Cl)cc2cnc(Nc3ccc(N4CCNCC4)cc3)nc21` [Compound 195, 6-(2,6-Dichlorophenyl)-8-(2-methoxyethyl)oxy-2-(4-piperazinophenyl)-amino-pyrido[2,3-d]pyrimidin-7-one], the figures for the IC50 in assay [1] and in assay [2] were less than 1000 nM and less than 500 nM, respectively.

For `COCCN(C)C(=O)c1cc(Nc2ncc3cc(-c4c(F)cccc4Cl)c(=O)n(OC)c3n2)cn1C` [Compound 194, 6-(2-Chloro-6-fluorophenyl)-2-(5-N-(2-methoxyethyl)-N-methyl-aminocarbonyl-1-methyl-pyrrol-3-yl)-amino-8-methoxy-pyrido[2,3-d]pyrimidin-7-one], the IC50 was less than 1000 nM in assay [1] and less than 100 nM in assay [2].

Regarding `COn1c(=O)c(-c2c(Cl)cccc2Cl)cc2cnc(Nc3ccc(OCCO)cc3)nc21` [Compound 89, 6-(2,6-Dichlorophenyl)-2-(4-(2-hydroxyethyl)oxyphenyl) amino-8-methoxy-pyrido[2,3-d]pyrimidin-7-one], the 50% inhibitory concentration (IC50) is less than 1000 nM in assay [1] and less than 100 nM in assay [2].

For `COn1c(=O)c(-c2c(Cl)cccc2Cl)cc2cnc(Nc3cccc(S(C)(=N)=O)c3)nc21` (stereo not drawn) [Compound 161, 6-(2,6-Dichlorophenyl)-8-methoxy-2-(3-methyliminosulfonylphenyl)-amino-pyrido[2,3-d]pyrimidin-7-one], the results for the IC50 in assay [1] and in assay [2] were less than 1000 nM and less than 100 nM, respectively.

On to `COn1c(=O)c(-c2c(Cl)cccc2Cl)cc2cnc(Nc3ccc(N4CCN(C(C)C)CC4)cc3)nc21` [Compound 187], for which the IC50 was less than 1000 nM in assay [1] and less than 500 nM in assay [2].

Consider `COC(=O)c1ccc(Nc2ncc3cc(-c4c(Cl)cccc4Cl)c(=O)n(OC)c3n2)cc1` [Compound 162, 6-(2,6-Dichlorophenyl)-2-(4-methoxycarbonylphenyl)-amino-8-methoxy-pyrido[2,3-d]pyrimidin-7-one], for which the IC50 in assay [1] was less than 1000 nM; in assay [2], greater than 1000 nM.

For the molecule `COCCN1CCN(C(=O)c2cc(Nc3ncc4cc(-c5c(Cl)cccc5Cl)c(=O)n(OC)c4n3)cn2C)CC1` [Compound 188, 6-(2,6-Dichlorophenyl)-8-methoxy-2-(5-(4-(2-methoxy)ethyl)piperazino-carbonyl-1-methyl-pyrrol-3-yl)-amino-pyrido[2,3-d]pyrimidin-7-one], the IC50 was less than 1000 nM in assay [1] and less than 500 nM in assay [2].

On to `COn1c(=O)c(-c2c(Cl)cccc2Cl)cc2cnc(Nc3ccc(CC#N)cc3)nc21` [Compound 97, 2-(4-cyanomethylphenyl)-amino-6-(2,6-dichlorophenyl)-8-methoxy-pyrido[2,3-d]pyrimidin-7-one], for which the results for the IC50 in assay [1] and in assay [2] were less than 1000 nM and less than 100 nM, respectively.

`O=c1c(-c2c(F)cccc2Cl)cc2cnc(Nc3ccc(N4CCOCC4)cc3)nc2n1OCC1CC1` [Compound 129]: the IC50 in assay [1] was less than 1000 nM; in assay [2], less than 100 nM.

On to `COn1c(=O)c(-c2c(Cl)cccc2Cl)cc2cnc(Nc3ccc(/C=N/O)cc3)nc21` [Compound 210, 2-(4-(hydroximino)methylphenyl)-amino-6-(2,6-dichlorophenyl)-8-methoxy-pyrido[2,3-d]pyrimidin-7-one], for which the IC50 in assay [1] is less than 1000 nM; in assay [2], less than 500 nM.

As to `COn1c(=O)c(-c2c(Cl)cccc2Cl)cc2cnc(Nc3cccc(Cn4cncn4)c3)nc21` [Compound 134, 6-(2,6-Dichlorophenyl)-8-methoxy-2-(3-(1,2,4-triazol-1-ylmethyl)phenyl)-amino-pyrido[2,3-d]pyrimidin-7-one], the IC50 is less than 1000 nM in assay [1] and less than 100 nM in assay [2].

As to `COn1c(=O)c(-c2c(Cl)cccc2Cl)cc2cnc(Nc3ccc(CNS(C)(=O)=O)cc3)nc21` [Compound 120, 6-(2,6-Dichlorophenyl)-8-methoxy-2-(4-methylsulfonylaminomethyl-phenyl)-amino-pyrido[2,3-d]pyrimidin-7-one], the IC50 was less than 1000 nM in assay [1] and less than 100 nM in assay [2].

For `CCN(CC)S(=O)(=O)c1cccc(Nc2ncc3cc(-c4c(Cl)cccc4Cl)c(=O)n(OC)c3n2)c1` [Compound 123, 6-(2,6-Dichlorophenyl)-2-(3-diethylaminosulfonylphenyl)-amino-8-methoxy-pyrido[2,3-d]pyrimidin-7-one], the IC50 is less than 10000 nM in assay [1] and greater than 1000 nM in assay [2].

On to `COn1c(=O)c(-c2c(Cl)cccc2Cl)cc2cnc(Nc3ccc(OCCN4CCCC4)cc3)nc21` [Compound 91, 6-(2,6-Dichlorophenyl)-8-methoxy-2-(4-(2-pyrrolidinoethyl)oxyphenyl) amino-pyrido[2,3-d]pyrimidin-7-one], for which the IC50 in assay [1] is less than 1000 nM; in assay [2], less than 500 nM.

For `COn1c(=O)c(-c2c(Cl)cccc2Cl)cc2cnc(NC(=O)C3CC3)nc21` [Compound 80, 2-Cyclopropylcarbonylamino-6-(2,6-dichlorophenyl)-8-methoxy-pyrido[2,3-d]pyrimidin-7-one], the IC50 was greater than 10000 nM in assay [1] and greater than 1000 nM in assay [2].

`O=c1c(-c2c(F)cccc2Cl)cc2cnc(Nc3ccc(N4CCOCC4)cc3)nc2n1OCC1CCCC1` [Compound 173]: the IC50 in assay [1] was less than 1000 nM; in assay [2], less than 500 nM.

For `COn1c(=O)c(-c2c(Cl)cccc2Cl)cc2cnc(Nc3ccc(C#N)cc3)nc21` [Compound 86, 2-(4-Cyanophenyl)-amino-6-(2,6-dichlorophenyl)-8-methoxy-pyrido[2,3-d]pyrimidin-7-one], the IC50 in assay [1] and in assay [2] was less than 1000 nM throughout.

In the case of `COn1c(=O)c(-c2c(Cl)cccc2Cl)cc2cnc(Nc3cccc(CN4CC[C@@H](O)C4)c3)nc21` [Compound 182, 6-(2,6-Dichlorophenyl)-2-(3-(3-(R)-hydroxypyrrolidinomethyl)phenyl)-amino-8-methoxy-pyrido[2,3-d]pyrimidin-7-one], the IC50 in assay [1] is less than 1000 nM; in assay [2] it was less than 500 nM.
